Reference: patent US10106534B2 (CELGENE QUANTICEL RESEARCH, INC., priority 2014, dated 2018)

Biological target: JMJD2C (Homo sapiens (Human), UniProt Q9H3R0)
Test: In vitro enzyme inhibition assay for JMJD2C activity (TR-FRET)
Format: biochemical
Experimental: This assay determines the ability of a test compound to inhibit JMJD2C demethylase activity. Baculovirus expressed JMJD2C (GenBank Accession #BC143571, AA 2-372) was purchased from BPS Bioscience (Cat#50105).
The ability of test compounds to inhibit the activity of JMJD2C was determined in 384-well plate format under the following reaction conditions: 0.3 nM JMJD2C, 300 nM H3K9me3-biotin labeled peptide (Anaspec cat #64360), 2 μM alpha-ketoglutaric acid in assay buffer of 50 mM HEPES, pH7.3, 0.005% Brij35, 0.5 mM TCEP, 0.2 mg/ml BSA, 50 μM sodium L-ascorbate, and 2 μM ammonium iron(II) sulfate. Reaction product was determined quantitatively by TR-FRET after the addition of detection reagent Phycolink Streptavidin-allophycocyanin (Prozyme) and Europium-anti-di-methylated histone H3 lysine 9 (H3K9me2) antibody (PerkinElmer) in the presence of 5 mM EDTA in LANCE detection buffer (PerkinElmer) at a final concentration of 50 nM and 1 nM, respectively.
The assay reaction was initiated by the following: 2 μl of the mixture of 900 nM H3K9me3-biotin labeled peptide and 6 μM alpha-ketoglutaric acid with 2 μl of 11-point serial diluted inhibitor in 3% DMSO were added to each well of the plate, followed by the addition of 2 μl of 0.9 nM JMJD2C to initiate the reaction. The reaction mixture was incubated at room temperature for 30 minutes, and terminated by the addition of 6 μl of 5 mM EDTA in LANCE detection buffer containing 100 nM Phycolink Streptavidin-allophycocyanin and 2 nM Europium-anti-H3K9me2 antibody. Plates were read by EnVisionMultilabel Reader in TR-FRET mode (excitation at 320 nm, emission at 615 nm and 665 nm) after 1 hour incubation at room temperature. A ratio was calculated (665/615) for each well and fitted to determine inhibition constant (IC50).

JMJD2C, sequence (Q9H3R0 2-372): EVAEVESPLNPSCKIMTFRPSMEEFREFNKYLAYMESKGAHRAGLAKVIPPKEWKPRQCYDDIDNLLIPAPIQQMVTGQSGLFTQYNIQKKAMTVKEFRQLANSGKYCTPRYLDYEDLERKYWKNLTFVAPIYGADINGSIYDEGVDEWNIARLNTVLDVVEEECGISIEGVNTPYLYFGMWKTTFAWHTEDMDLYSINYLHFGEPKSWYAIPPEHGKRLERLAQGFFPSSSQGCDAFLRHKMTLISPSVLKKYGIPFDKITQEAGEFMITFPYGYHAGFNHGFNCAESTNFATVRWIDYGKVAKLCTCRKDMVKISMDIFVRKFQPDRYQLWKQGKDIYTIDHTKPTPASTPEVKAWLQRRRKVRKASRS

| Compound | IC50 |
| --- | --- |
| Cc1c(F)cccc1-c1ccc2c(c1)OCC[C@@H]2CNc1cnccc1C(=O)O [Example 41, 3-({[(4S)-7-(3-fluoro-2-methylphenyl)-3,4-dihydro-2H-1-benzopyran-4-yl]methyl}amino)pyridine-4-carboxylic acid] | 1000 to 10000 nM |
| O=C(O)c1ccncc1NC[C@H]1CCOc2cc(Oc3ccccc3)ccc21 [Example 47, 3-({[(4S)-7-phenoxy-3,4-dihydro-2H-1-benzopyran-4-yl]methyl}amino)pyridine-4-carboxylic acid] | 1000 to 10000 nM |
| Cc1ccccc1Sc1ccc2c(c1)OCC[C@@H]2CNc1cnccc1C(=O)O [Example 50, 3-({[(4S)-7-[(2-methylphenyl)sulfanyl]-3,4-dihydro-2H-1-benzopyran-4-yl]methyl}amino)pyridine-4-carboxylic acid] | 1000 to 10000 nM |
| Cc1ccccc1Oc1ccc2c(c1)CCC[C@@H]2CNc1cnccc1C(=O)O [Example 57, 3-({[(1S)-6-(2-methylphenoxy)-1,2,3,4-tetrahydronaphthalen-1-yl]methyl}amino)pyridine-4-carboxylic acid] | 1000 to 10000 nM |
| O=C(O)c1ccncc1NC[C@H]1CCCc2cc(OC(F)F)ccc21 [Example 60, 3-({[(1S)-6-(difluoromethoxy)-1,2,3,4-tetrahydronaphthalen-1-yl]methyl}amino)pyridine-4-carboxylic acid] | 1000 to 10000 nM |
| O=C(O)c1ccncc1NCC1CCCc2cc(Oc3ccccc3C(F)(F)F)ccc21 (centres unmarked) [Example 62, 3-[({6-[2-(trifluoromethyl)phenoxy]-1,2,3,4-tetrahydronaphthalen-1-yl}methyl)amino]pyridine-4-carboxylic acid] | 1000 to 10000 nM |
| Cc1cccc(Sc2ccc3c(c2)CCC[C@@H]3CNc2cnccc2C(=O)O)c1 [Example 68, 3-({[(1S)-6-[(3-methylphenyl)sulfanyl]-1,2,3,4-tetrahydronaphthalen-1-yl]methyl}amino)pyridine-4-carboxylic acid] | 1000 to 10000 nM |

The next lines start with the values.

| IC50 | Compound |
| --- | --- |
| 1000 to 10000 nM | Cc1ccccc1Sc1ccc2c(c1)CCC[C@@H]2CNc1cnccc1C(=O)O [Example 70, 3-({[(1S)-6-[(2-methylphenyl)sulfanyl]-1,2,3,4-tetrahydronaphthalen-1-yl]methyl}amino)pyridine-4-carboxylic acid] |
| 1000 to 10000 nM | O=C(O)c1ccncc1NC[C@H]1CCCc2cc(Sc3ccccc3F)ccc21 [Example 72, 3-({[(1S)-6-[(2-fluorophenyl)sulfanyl]-1,2,3,4-tetrahydronaphthalen-1-yl]methyl}amino)pyridine-4-carboxylic acid] |
| 1000 to 10000 nM | O=C(O)c1ccncc1NC[C@H]1CCCc2cc(Sc3cccc(F)c3)ccc21 [Example 74, 3-({[(1S)-6-[(3-fluorophenyl)sulfanyl]-1,2,3,4-tetrahydronaphthalen-1-yl]methyl}amino)pyridine-4-carboxylic acid] |
| 100 to 1000 nM | O=C(O)c1ccncc1NC[C@@H]1CCCc2cc(Sc3cccc(F)c3)ccc21 [Example 75, 3-({[(1R)-6-[(3-fluorophenyl)sulfanyl]-1,2,3,4-tetrahydronaphthalen-1-yl]methyl}amino)pyridine-4-carboxylic acid] |
| 1000 to 10000 nM | O=C(O)c1ccncc1NC[C@H]1CCCc2cc(Sc3ccc(F)cc3)ccc21 [Example 76, 3-({[(1S)-6-[(4-fluorophenyl)sulfanyl]-1,2,3,4-tetrahydronaphthalen-1-yl]methyl}amino)pyridine-4-carboxylic acid] |
| 1000 to 10000 nM | Cc1ccc(Sc2ccc3c(c2)CCC[C@@H]3CNc2cnccc2C(=O)O)cc1 [Example 78, 3-({[(1S)-6-[(4-methylphenyl)sulfanyl]-1,2,3,4-tetrahydronaphthalen-1-yl]methyl}amino)pyridine-4-carboxylic acid] |
| 100 to 1000 nM | O=C(O)c1ccncc1NC[C@H]1CCCc2cc(S(=O)(=O)c3ccccc3)ccc21 [Example 81, 3-({[(1S)-6-(benzenesulfonyl)-1,2,3,4-tetrahydronaphthalen-1-yl]methyl}amino)pyridine-4-carboxylic acid] |
